Literature values in patent publication US11859165B2, “Open-top microfluidic device with structural anchors” (EMULATE, INC., priority 2015, dated 2024).

Tested on: cell monolayers with tight junctions
Conditions: passive paracellular diffusion across cell monolayers; value reported to be indicative of well-established monolayers

Lucifer Yellow
Permeability (Papp) for LY: 0.5 to 1.2 ×10⁻⁶ cm/s
